Literature values as cited in patent US20230066502A1, “PREDICTION METHOD FOR INDICATION OF AIMED DRUG OR EQUIVALENT SUBSTANCE OF DRUG, PREDICTION APPARATUS, AND PREDICTION PROGRAM” (KARYDO THERAPEUTIX, INC., priority 2020, published 2023).

Conditions: for occurrence frequency of adverse event Blood glucose decreased / occurrence frequency of adverse event Sleep disorder: FIG. 3 example of training data, already reported adverse event-related information, cases of this adverse event / total adverse event cases for the drug; for occurrence frequency of adverse event Low blood sugar / occurrence frequency of adverse event sleepiness: FIG. 7 example of second training data calculated from FAERS adverse event data, maximum value 1

Structure (SMILES): OC[C@H]1O[C@@H](c2ccc(Cl)c(Cc3ccc(O[C@H]4CCOC4)cc3)c2)[C@H](O)[C@@H](O)[C@@H]1O [EMPA, empagliflozin]
- occurrence frequency of adverse event Blood glucose decreased: 0.141
- occurrence frequency of adverse event Sleep disorder: 0.007
- occurrence frequency of adverse event Low blood sugar: 0.12
- occurrence frequency of adverse event sleepiness: 0.01

Structure (SMILES): O=C1CCc2ccc(OCCCCN3CCN(c4cccc(Cl)c4Cl)CC3)cc2N1 [aripiprazole]
- occurrence frequency of adverse event Blood glucose decreased: 0.009
- occurrence frequency of adverse event Sleep disorder: 0.026
- occurrence frequency of adverse event Low blood sugar: 0.0
- occurrence frequency of adverse event sleepiness: 0.5
